Patent US8426447B2, “Spiro-tricyclic ring compounds as beta-secretase modulators and methods of use” (Amgen Inc., priority 2008, dated 2013)
pIC50: −log10 of the molar value. Values belong to the molecule of their own block, whether it stands above or below them.

How the values were obtained:
[1] = molecular target: T1, BACE1 (Homo sapiens, UniProt P56817); assay: In Vitro BACE Cell-based Assay (HEK cell assay): Aβ40 in conditioned medium of cells stably expressing Amyloid Precursor Protein, sandwich ELISA; conditions: read-out: HEK cell assay; for IC50: Table III, IC50's in uM ranges
T1 sequence (P56817 46-501, species assumed): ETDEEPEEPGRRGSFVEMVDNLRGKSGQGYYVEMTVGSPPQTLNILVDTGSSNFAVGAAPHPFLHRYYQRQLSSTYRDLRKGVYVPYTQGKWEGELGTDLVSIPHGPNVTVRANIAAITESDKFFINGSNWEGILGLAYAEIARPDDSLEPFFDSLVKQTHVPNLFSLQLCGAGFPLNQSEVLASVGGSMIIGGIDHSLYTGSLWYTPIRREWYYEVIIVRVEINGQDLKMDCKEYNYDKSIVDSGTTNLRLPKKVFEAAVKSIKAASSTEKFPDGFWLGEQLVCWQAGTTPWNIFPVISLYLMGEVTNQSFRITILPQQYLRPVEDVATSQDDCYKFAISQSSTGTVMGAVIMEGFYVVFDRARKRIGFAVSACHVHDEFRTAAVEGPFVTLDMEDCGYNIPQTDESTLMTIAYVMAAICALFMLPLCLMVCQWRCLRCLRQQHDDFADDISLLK
Outline: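 HEK cells stably expressing APP were treated 24 h with compound in 10-point dose response starting at 100 or 10 μM (0.1% DMSO). Secreted Aβ40 quantified by sandwich ELISA (pAb40 capture, biotinylated 6E10 detection, europium time-resolved fluorescence), with IC50 derived from percent inhibition versus concentration.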

[2] = molecular target: T1, BACE1; assay: In Vitro Enzymatic BACE FRET (Fluorescence Resonance Energy Transfer) Assay; type: biochemical; conditions: read-out: BACE1 FRET assay; for IC50: Table III, IC50's in uM ranges
Outline: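 Acetate buffer at pH 4.2 with 10% DMSO and 100 uM genapol hosts the enzymatic reaction, initiated by 50 nM FRET substrate and allowed to proceed one hour. Tris quench to neutral pH precedes the fluorescence measurement.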

[3] = HEK cell-based assay, Aβ40 in conditioned medium, IC50 class symbols
[4] = in vitro BACE FRET enzyme assay, IC50 class symbols

SMILES: Cc1noc(C)c1-c1ccc2c(c1)[C@]1(COC(N)=N1)c1cc(OCC(C)(C)C)ccc1O2 [compound 189]
- IC50 [1]: > 5 µM
- IC50 [2]: 0.1 to 1 µM

SMILES: COc1ccc2c(c1)[C@]1(COC(N)=N1)c1cc(-c3cc(Cl)ccc3F)ccc1O2 [Example 12, (4S)-2′-(5-chloro-2-fluorophenyl)-7′-methoxyspiro[1,3-oxazole-4,9′-xanthen]-2-amine trifluoroacetic acid]
- pIC50 ([1]; Table 1, Aβ40, 24 h incubation): < 5.30
- pIC50 ([2]; Table 1): 6.00 to 7.00

SMILES: NC1=N[C@@]2(CO1)c1cc(-c3cccnc3)ccc1Oc1cnc(N3CCC(=O)CC3)cc12 [compound 442]
- pIC50 ([1]; HEK cells): > 7.00
- pIC50 [2]: > 7.00

SMILES: CC(C)(C)CC(=O)c1ccc2c(c1)[C@@]1(CSC(N)=N1)c1cc(-c3cncnc3)ccc1O2 [compound 762]
- pIC50 [1]: 5.30 to 6.00
- pIC50 [2]: 6.00 to 7.00

SMILES: NC1=NC2(CO1)c1cc(-c3cccnc3)ccc1Oc1ccc(-c3cccnc3)cc12 [Example 123, 2′,7′-di(pyridin-3-yl)-5H-spiro[oxazole-4,9′-xanthen]-2-amine]
- IC50 [1]: < 0.1 µM
- IC50 [2]: < 0.1 µM

SMILES: NC1=N[C@@]2(CO1)c1cc(-c3cc(F)ccc3F)ccc1Oc1ncc(C3=CCOCC3)cc12 [compound 487]
- pIC50 ([1]; HEK cells): > 7.00
- pIC50 [2]: > 7.00

SMILES: N#Cc1cccc(-c2ccc3c(c2)[C@]2(COC(N)=N2)c2cc(-c4cccnc4)ccc2O3)c1 [compound 961]
- pIC50 [1]: > 7.00
- pIC50 [2]: > 7.00

SMILES: COc1ccc2c(c1)[C@]1(COC(N)=N1)c1cc(-c3cccc4cnccc34)ccc1O2 [compound 588]
- pIC50 ([1]; Table IV, class symbols): 5.30 to 6.00
- pIC50 ([2]; Table IV, class symbols): 6.00 to 7.00

SMILES: COc1ccc2c(c1)[C@]1(COC(N)=N1)c1cc(-c3cccc4cccnc34)ccc1O2 [compound 590]
- pIC50 ([1]; Table IV, class symbols): 5.30 to 6.00
- pIC50 ([2]; Table IV, class symbols): 5.30 to 6.00

SMILES: Cc1cc(-c2ccc3c(c2)[C@]2(COC(N)=N2)c2cc(-c4cccnc4)ccc2O3)on1 [compound 693]
- pIC50 [1]: > 7.00
- pIC50 [2]: > 7.00

SMILES: CC(C)(C)COc1ccc2c(c1)[C@]1(COC(N)=N1)c1cc(-c3cnccc3Cl)ccc1O2 [compound 883]
- pIC50 ([1]; Table IV, class symbols): 6.00 to 7.00
- pIC50 ([2]; Table IV, class symbols): > 7.00

SMILES: CC1(C)C[C@H](c2ccc3c(c2)[C@]2(COC(N)=N2)c2cc(-c4cncnc4)ccc2O3)CCO1 [compound 482]
- pIC50 ([1]; HEK cells): > 7.00
- pIC50 [2]: > 7.00

SMILES: COc1ccc2c(c1)[C@@]1(N=C(N)O[C@H]1C)c1cc(-c3cncnc3)ccc1O2 (single isomer, unassigned) [Example 125b]
- IC50 [1]: 0.1 to 1 µM
- IC50 [2]: 0.1 to 1 µM

SMILES: C[C@@H]1CN(c2cc(F)c3c(c2)[C@]2(COC(N)=N2)c2cc(-c4cncnc4)ccc2O3)C[C@H](C)O1 [compound 501]
- pIC50 ([1]; HEK cells): > 7.00
- pIC50 [2]: > 7.00

SMILES: COC(C)(C)CCc1ccc2c(c1)[C@]1(COC(N)=N1)c1cc(-c3cccnc3)ccc1O2 [compound 1001]
- pIC50 [1]: > 7.00
- pIC50 [2]: > 7.00

SMILES: NC1=N[C@]2(CO1)c1cc(Br)ccc1Oc1cnc(Cl)cc12 [compound 549]
- pIC50 ([1]; Table IV, class symbols): < 5.30
- pIC50 ([2]; Table IV, class symbols): < 5.30

SMILES: COc1ccc2c(c1)[C@]1(COC(N)=N1)c1cc(-c3cncnc3)cc(F)c1O2 [152a]
- IC50 [1]: 1 to 5 µM
- IC50 [2]: 0.1 to 1 µM

Second part, the molecule after the results:

- pIC50 [1]: 6.00 to 7.00
- pIC50 [2]: 6.00 to 7.00
SMILES: CC(=O)COc1ccc2c(c1)[C@@]1(COC(N)=N1)c1cc(-c3cccnc3)cnc1O2 [compound 926]

- pIC50 ([1]; Table IV, class symbols): 6.00 to 7.00
- pIC50 ([2]; Table IV, class symbols): > 7.00
SMILES: CC(C)(C)COc1ccc2c(c1)[C@]1(COC(N)=N1)c1cc(-c3cccnc3F)cnc1O2 [compound 871]

- IC50 [1]: < 0.1 µM
- IC50 [2]: < 0.1 µM
SMILES: NC1=N[C@]2(CO1)c1cc(-c3cccnc3)ccc1Oc1ncc(-c3cccnc3)cc12 [compound 157]

- pIC50 [1, 3]: > 7.00
- pIC50 [2, 4]: > 7.00
SMILES: NC1=N[C@@]2(CO1)c1cc(-c3cccnc3F)ccc1Oc1ncc(-c3ccncc3)cc12 [compound 403]

- pIC50 ([1]; HEK cells): > 7.00
- pIC50 [2]: > 7.00
SMILES: COC(=O)CN1CCN(c2cc3c(cn2)Oc2ccc(-c4cccnc4)cc2[C@@]32COC(N)=N2)CC1 [compound 438]

- pIC50 ([1]; Table IV, class symbols): 6.00 to 7.00
- pIC50 ([2]; Table IV, class symbols): > 7.00
SMILES: NC1=N[C@]2(CO1)c1cc(OC[C@H](O)C(F)(F)F)ccc1Oc1ccc(-c3cccnc3)cc12 [compound 924]

- pIC50 [1]: 6.00 to 7.00
- pIC50 [2]: 6.00 to 7.00
SMILES: Cc1ccc(-c2ccc3c(c2)[C@]2(COC(N)=N2)c2cc(OCC(C)(C)C)ccc2O3)cn1 [compound 786]

- IC50 [1]: 0.1 to 1 µM
- IC50 [2]: < 0.1 µM
SMILES: NC1=N[C@]2(CO1)c1cc(-c3cccnc3)ccc1Oc1ncc(Br)cc12 [compound 174]

- pIC50 ([1]; Table IV, class symbols): 6.00 to 7.00
- pIC50 ([2]; Table IV, class symbols): 6.00 to 7.00
SMILES: NC1=N[C@]2(CO1)c1ccccc1Oc1ncc(-c3cncnc3)cc12 [compound 661]

- pIC50 [1, 3]: > 7.00
- pIC50 [2, 4]: > 7.00
SMILES: CCOC(C)(C)C#Cc1cnc2c(c1)[C@]1(COC(N)=N1)c1cc(-c3cccnc3)ccc1O2 [compound 347]
